From patent US20250268923A1, “APPLICATION OF TETRACYCLINE COMPOUND IN TREATMENT OF TUMOR” (NANJING SHIJIANG MEDICINE TECHNOLOGY CO., LTD, priority 2021, published 2025) come the findings set out here.

What all share (assay type): cell-based
Assay [1] has as its system SF-126 (human glioblastoma multiforme cell). The experiment in a line: Cell viability (CellTiter-Glo), SF-126. Particulars: insensitive group, 3-4 days of culture, n=3, read-out: Tigecycline IC50. As to the method:
(§1) The inhibitory effect of tigecycline on various tumor cell lines was detected using cell activity detection reagent.
(§2) Cell viability was detected using the Promega CellTiter-Glo kit, cell viability was determined by directly measuring intracellular ATP content. In the experiment, the IC50 value of tigecycline on various tumor cell lines was determined.
(§3) Each tumor cell was cultured separately in relevant medium (+p/s), and was incubated for 3 h, then the gradient diluted tigecycline was added. After 3-4 days of culture, the relevant IC50 (50% inhibiting concentration) was measured (n=3). The name, source and culture conditions of each tumor cell line were as follows:
Cell line SF126 (JCRB. No. IFO50286) was cultured in 10% fetal bovine serum-containing EMEM medium (+P/S).
A general note: ATP-based viability assays read luminescence as a measure of living cells.

Assay [2] concerns SW48 (human colon adenocarcinoma cell). Put plainly: Cell viability (CellTiter-Glo), SW48. To be noted: sensitive group, 3-4 days of culture, n=3, read-out: Tigecycline IC50. As to the method: as §1, §2, §3
Cell line SW48 (ATCC, No. CCL-231) was cultured in 10% fetal bovine serum-containing Leibovitz's L-15 medium (+P/S).

The subject of assay [3] is GB-1 (human glioblastoma cell). The experiment in a line: Cell viability (CellTiter-Glo), GB-1. Particulars: insensitive group, 3-4 days of culture, n=3, read-out: Tigecycline IC50. As to the method: as §1, §2, §3
Cell line GB-1 (JCRB, No. IFO050489) was cultured in 10% fetal bovine serum-containing DMEM medium (+P/S).

Assay [4] concerns WSU-DLCL2 (human diffuse large B-cell lymphoma). Put plainly: Cell viability (CellTiter-Glo), WSU-DLCL2. Particulars: WSUDLCL2, sensitive group, 3-4 days of culture, n=3, read-out: Tigecycline IC50. As to the method: as §1, §2, §3
Cell line WSU-DLCL2 (DSMZ, No. ACC-575) was cultured in 10% fetal bovine serum-containing RPMI1640 medium (+P/S).

In assay [5] the test system is NCI-H82 (human small cell lung cancer cell). The experiment in a line: Cell viability (CellTiter-Glo), NCI-H82. Particulars: sensitive group, 3-4 days of culture, n=3, read-out: Tigecycline IC50. As to the method: as §1, §2, §3
Cell line NCI-H82 (ATCC, No. HTB-175) was cultured in 10% fetal bovine serum-containing RPMI1640 medium (+P/S).

The subject of assay [6] is 786-O (clear cell renal cell adenocarcinoma cell). Put plainly: Cell viability (CellTiter-Glo), 786-O. To be noted: Homo sapiens, 786-0, insensitive group, 3-4 days of culture, n=3, read-out: Tigecycline IC50. Here is the method: as §1, §2, §3
Cell line 786-0 (ATCC, No. CRL-1932) was cultured in 10% fetal bovine serum-containing RPMI1640 medium (+P/S).

Assay [7] relates to NCI-H82 (Con) cell (transfected with empty virus vector). The experiment in a line: Cell viability (CellTiter-Glo), control NCI-H82 (Con). Particulars: Homo sapiens, n=3, read-out: IC50 value of tigecycline on control NCI-H82 cell (NCI-H82 (Con)). The source says:
(§4) The NNMT protein-overexpressing NCI-H82 cell (NCI-H82 (ov-NNMT)) was obtained by inserting the NNMT gene into NCI-H82 cell using a viral vector. The control NCI-H82 cell (NCI-H82 (Con)) was obtained by transfecting NCI-H82 cell with empty virus vector without carrying NNMT gene.
(§5) The expressing level of NNMT protein in control NCI-H82 cell (NCI-H82 (Con)) and NNMT protein-overexpressing NCI-H82 cell (NCI-H82 (ov-NNMT)) was detected using Western Blot assay (as shown in FIG. 7), it could be seen from FIG. 7 that the NNMT protein in NCI-H82 (ov-NNMT) cell was overexpressed compared with the expression level of NNMT protein in NCI-H82 (Con) cell.
(§6) The IC50 value of tigecycline on control NCI-H82 cell (NCI-H82 (Con)) and NNMT protein-overexpressing NCI-H82 cell (NCI-H82 (ov-NNMT)) was determined using Promega CellTiter-Glo kit which detected cell viability by directly measuring intracellular ATP content (n=3), the experiment result was shown in Table 4 below: […]

Assay [8] has as its system G-401 (human renal carcinoma Wilms cell). Put plainly: Cell viability (CellTiter-Glo), G-401. Particulars: sensitive group, 3-4 days of culture, n=3, read-out: Tigecycline IC50. As to the method:
as §1, §2, §3
Cell line G-401 (ATCC, No. CRL-1441) was cultured in 10% fetal bovine serum-containing McCoy's 5a medium (+P/S).

For assay [9], the system named is NCI-H82 (ov-NNMT) cell (NNMT protein-overexpressing). The experiment in a line: Cell viability (CellTiter-Glo), NNMT-overexpressing NCI-H82. To be noted: Homo sapiens, NNMT gene inserted by viral vector, n=3, read-out: IC50 value of tigecycline on NNMT protein-overexpressing NCI-H82 cell (NCI-H82 (ov-NNMT)).
From the text: as §4, §5, §6

The test system of assay [10] is CFPAC-1 (human pancreatic cancer cell). The experiment in a line: Cell viability (CellTiter-Glo), CFPAC-1. Particulars: insensitive group, 3-4 days of culture, n=3, read-out: Tigecycline IC50. As to the method:
as §1, §2, §3
Cell line CFPAC-1 (ATCC, No. CRL-1918) was cultured in 10% fetal bovine serum-containing IMDM medium (+P/S).

In assay [11] the test system is MDA-MB-453 (breast cancer cell). Put plainly: Cell viability (CellTiter-Glo), MDA-MB-453. Particulars: Homo sapiens, sensitive group, 3-4 days of culture, n=3, read-out: Tigecycline IC50. As to the method: as §1, §2, §3
Cell line MDA-MB-453 (ATCC, No. HTB-131) was cultured in 10% fetal bovine serum-containing Leibovitz's L-15 medium (+P/S).

For orientation: IC50 means the concentration that gives 50% inhibition.

Consider `CN(C)c1cc(NC(=O)CNC(C)(C)C)c(O)c2c1C[C@H]1C[C@H]3[C@H](N(C)C)C(O)=C(C(N)=O)C(=O)[C@@]3(O)C(O)=C1C2=O` [Tigecycline, tigecycline], for which the IC50 in assay [1] came to 26.3 µM; in assay [2], 6.31 µM; in assay [3] it was 18.5 µM; in assay [4], 1.36 µM; in assay [5] it was 0.79 µM; in assay [6], 26.9 µM. Besides, the IC50 worked out at 0.75 µM in assay [7]; 4.04 µM in assay [8]; 2.31 µM in assay [9]; 24.8 µM in assay [10]; 5.05 µM in assay [11].
